Assay results as given in PMC4317219 (Pharmacology Research & Perspectives, 2014).

How the values were obtained:
[1] = cited from earlier work
[2] = test system: Sprague-Dawley rats, i.c.v. ouabain-induced hyperactivity; assay: Ouabain-induced hyperactivity; format: in vivo, rat; details: acute; cariprazine 1.0 mg/kg i.p. aCSF vs. saline aCSF (no ouabain); P < 0.05
[3] = target: mouse D2R-long form (mD2LR) (Mus musculus, UniProt P61168); assay: cell-based
[4] = after an i.p. injection, ref [1976]

mouse D2R-long form (mD2LR), sequence (P61168 whole entry): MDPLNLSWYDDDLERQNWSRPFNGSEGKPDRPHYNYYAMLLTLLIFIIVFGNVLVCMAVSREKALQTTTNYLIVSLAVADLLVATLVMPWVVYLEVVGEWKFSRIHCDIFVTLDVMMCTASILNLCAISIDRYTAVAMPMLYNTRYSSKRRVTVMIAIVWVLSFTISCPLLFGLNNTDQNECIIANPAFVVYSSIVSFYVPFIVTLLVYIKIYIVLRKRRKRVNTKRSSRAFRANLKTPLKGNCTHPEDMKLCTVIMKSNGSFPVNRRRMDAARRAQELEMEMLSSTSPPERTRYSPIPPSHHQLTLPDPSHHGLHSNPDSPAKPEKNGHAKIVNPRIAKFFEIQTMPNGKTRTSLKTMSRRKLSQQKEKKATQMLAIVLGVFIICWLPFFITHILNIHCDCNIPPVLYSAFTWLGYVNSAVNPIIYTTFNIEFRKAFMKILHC

EC50 [3] [nM]	SMILES	lithium levels achieved in the rats ([1]; 6.75 mEq/kg i.p. then 2.4 g/kg of food for 7 days, ref [2003]) [mmol/L]	time to maximum brain levels [1, 4] [h]	time to maximum serum level [1, 4] [h]	sedation: inhibition of open field activity [2] [%]
	[Li] [lithium]	1.01 ± 0.18	≤ 8	≤ 0.5	
1.4 ± 0.1	CN(C)C(=O)N[C@H]1CC[C@H](CCN2CCN(c3cccc(Cl)c3Cl)CC2)CC1 [Cariprazine]				72
